# Counter-ions that a name gives are not always drawn.
# Legend:
# [1] = tested on: Lambda DNA/Hind III fragments; experiment: Staining of nucleic acids in electrophoresis gels; details: for detection limit in DNA gel: 1% agarose/TBE minigel, 1 μM dye in 1XTBE, 30 minutes
# Experimental: Two separate 1% agarose/TBE (89 mM tris-borate, 2 mM EDTA) minigels are loaded with Lambda DNA/Hind III fragments in a 3-fold serial dilution series of 1 μg, 333 ng, 111 ng, 37.0 ng, 12.4 ng 4.1 ng, 1.4ng. 0.5 ng, 0.2 ng, and 0.05 ng per lane. After the gels are subjected to electrophoresis, the gels are stained with either Dye 510 or Dye 798, as a 1 μM solution in 1XTBE for 30 minutes.
# After staining, each gel is illuminated at 254 nm using an epi-illuminator.Gels are photographed with POLAROID 667 black and white print film, Dye 798 stains the gel with a detection limit of 350 pg/band, while Dye 510 stains the gel with a detection limit of 180 pg/band.
# [2] = tested on: rat basophilic leukemia (RBL) cells; experiment: Rate of dye uptake in live cells; assay type: cell-based; details: 1 μM-scale dye (3 μL of 1 mM in 3 mL), excited at 490 nm, emission 520 nm; ±~2 sec
# Experimental: Dye uptake data were acquired using rat basophilic leukemia (RBL) cells. A suspension of RBL cells at a concentration of 1×10^6 cells/mL is prepared in room-temperature HEPES-buffered Tyrode's buffer containing 0.1% bovine serum albumin. Three μL of a 1 mM dye solution (in DMSO) is added at T=0 to an acrylic, 1 cm pathlength fluorescence cuvette containing 3 mL of the previously prepared RBL cell suspension. The suspension is then stirred continuously with a Teflon-coated magnetic stir bar. The samples are excited at 490 nm, and the fluorescence emission of the suspension at 520 nm is measured at 200 msec intervals for at least 5 minutes. The T1/2 value represents the time, in seconds, required for the fluorescence of the suspension to reach an intensity half-way between basal fluorescence level and peak fluorescence (±~2 sec).
# NIH 3T3 fibroblasts = experiment: Discrimination of plasma membrane-compromised fibroblasts; assay type: cell-based; details: 0.1 or 1.0 μM dye, 5 minutes
# Experimental: NIH 3T3 fibroblasts are grown to 75% confluency on 18 mm^2 glass coverslips under standard tissue culture conditions. Coverslips of 3T3 cells are exposed to 0.0001% to 0.1% saponin in HEPES-buffered complete saline solution (HBSS) for 10 minutes at room temperature and subsequently rinsed into HBSS containing 0.1 or 1.0 μM Dye 4100. After incubation for 5 minutes, coverslips are washed with HBSS and mounted on glass microscope slides using glass coverslips as spacers to avoid crushing the cells. The cell fluorescence is observed in the epi-fluorescence microscope using a 40X 0.85 NA objective lens and a standard rhodamine long-pass filter set (546 nm excitation/580 nm emission).
# Saccharomyces cerevisiae = experiment: Viability determination of cultured yeast; assay type: cell-based; details: 1 μM dye, 15 minutes, 490 nm-excited
# Experimental: A culture of Saccharomyces cerevisiae is grown in 75 mL of yeast extract-peptone-dextrose (YPD) broth for 2 weeks at 30° C., shaking at 200 rpm in a capped 250 mL Erlenmeyer flask. A 2 mL sample is taken aseptically each day. One mL of this sample is serially diluted in sterile 2% glucose solution and 0.1 mL plated on YPD agar in standard r 100 mm petri dishes. Yeast numbers in the dilution samples having visible turbidity are quantified using a Petroff-Hauser counting chamber. The other 1 mL of the sample is centrifuged in a microcentrifuge at 5,000 rpm for 5 minutes, and resuspended in 100 μL of 1 μM Dye 509 in 2% sterile dextrose solution. After incubation for 15 minutes with the dye, the sample is diluted to 3 mL and the 490 nm-excited […] fluorescence is measured relative to a series of standard fluorescein solutions spanning a 10,000-fold range in fluorescence.
# cells = details: background art; cited from earlier work
# [3] = illumination at 254 nm, 1 μM dye
compound,measurement,setting,value
CCN(CC)c1cc(C=C2Sc3ccccc3N2CC)c2ccccc2n1 [Dye 510],detection limit in DNA gel,[1]; illumination at 254 nm,180 pg/band
same,fluorescence colour of stained DNA-containing bands,[1]; [3],blue-green fluorescence
Cc1cc(C=C2Sc3ccccc3N2C)nc2ccccc12 [Dye 523-1],T1/2 for cell loading,[2],41 s
Cc1cc(C=C2Sc3ccccc3N2C)c2ccccc2n1 [Dye 523-2],T1/2 for cell loading,[2],1 s
CCN1C(=Cc2ccnc3ccccc23)Sc2ccccc21 [Dye 1266],T1/2 for cell loading,[2],2 s
CCN1C(=Cc2cc(-c3ccccc3)nc3ccccc23)Sc2ccccc21 [Dye 4100],staining of cells with compromised plasma membranes,NIH 3T3 fibroblasts; 0.0001% to 0.1% saponin,stain brightly
same,staining of untreated 3T3 cells,NIH 3T3 fibroblasts,virtually unstained
"CN1C(=Cc2ccnc3ccccc23)Sc2ccccc21 [Dye 798, 4-(2,3-dihydro-3-methyl-(benzo-1,3-thiazol-2-yl)-methylidine)-quinolinium tosylate]",detection limit in DNA gel,[1]; illumination at 254 nm,350 pg/band
same,background staining of gel,[1]; [3],no observable background staining
same,fluorescence colour of stained DNA-containing bands,[1]; [3],blue-green fluorescence
same,T1/2 for cell loading,[2],3 s
CN1C(=Cc2ccncc2)Sc2ccccc21 [Dye 7101],T1/2 for cell loading,[2],7 s
CCCCc1cc(C=C2Sc3ccccc3N2CC)c2ccccc2n1 [Dye 1268],T1/2 for cell loading,[2],3 s
CN1C(=Cc2ccnc3ccccc23)Oc2ccccc21 [Dye 799],T1/2 for cell loading,[2],2 s
CCN1C(=Cc2cc(Sc3ccccc3)nc3ccccc23)Sc2ccccc21 [Dye 509],fluorescence at 520 nm with increasing proportion of dead cells,Saccharomyces cerevisiae,increase in fluorescence at 520 nm
"CN1C(=Cc2cc[n+](C)c3ccccc23)Sc2ccccc21 [Thiazole Orange, reference compound]",limit of detection in DNA gel,"[1]; illumination of 254 nm, comparison dye",1-2 ng/band
same,T1/2 for cell loading,[2],9 s
same,staining of cells,cells,"readily stains many mammalian cells, yet does not effectively stain some eukaryotic cells"

# From patent US5656449A, “Neutral unsymmetrical cyanine dyes” (Molecular Probes, Inc., priority 1995, dated 1997)
